Like-named read-outs stand apart in the source and are kept apart here.
Tests used:
[1] = test system: wild mustard (Brassica kaber), also known as Sinapis arvensis (SINAR); test: post-emergent herbicidal test, wild mustard; assay type: in vivo; details: Brassica, post-emergence, read-out: SINAR percent control
Method in brief: (§1)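 Seedlings grown in sandy loam in a greenhouse (29/21 °C day/night, 14 h light) were sprayed post-emergence at 1 or 4 kg/ha in water with 0.5% Tween 20; grasses at 3–4 leaf, broadleaves at 1–2 leaf. Percent control versus untreated flats (0–100%) was rated 17–21 days later.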

[2] = test system: farnesyl pyrophosphate synthase in daffodil chromoplasts; test: inhibition of farnesyl pyrophosphate synthase in daffodil chromoplasts (14C-isopentenyl pyrophosphate incorporation); assay type: biochemical, Narcissus pseudonarcissus; details: unit inferred, IC50 values in nM, read-out: IC50
Method in brief: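 Daffodil chromoplasts in pH 7.7 sucrose/MgCl2/HEPES buffer with cysteine, NaF and BSA, started with ~3 micromolar 14C-isopentenyl pyrophosphate, 30 min at 30° C. Butanol-extractable radioactivity counted by scintillation; % residual activity calculated against zero-time and end-point no-inhibitor controls.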

[3] = test system: yellow nutsedge (Cyperus esculentus) (CYPES); test: post-emergent herbicidal test, yellow nutsedge; assay type: in vivo; details: Cyperus, post-emergence, read-out: CYPES percent control
Method in brief: as §1

[4] = test system: green foxtail (Setaria viridis) (SETVI); test: post-emergent herbicidal test, green foxtail; assay type: in vivo; details: Setaria viridis, post-emergence, read-out: SETVI percent control
Method in brief: as §1

[5] = test system: morningglory (Ipomoea spp.) (IPOSS); test: post-emergent herbicidal test, morningglory; assay type: in vivo; details: Ipomoea, post-emergence, read-out: IPOSS percent control
Method in brief: as §1

[6] = test system: barnyard grass (Enchinochloa crusgalli) (ECHCG); test: post-emergent herbicidal test, barnyard grass; assay type: in vivo; details: Echinochloa crus-galli, post-emergence, read-out: ECHCG percent control
Method in brief: as §1

[7] = test system: velvetleaf (Abutilon theophrasti) (ABUTH); test: post-emergent herbicidal test, velvetleaf; assay type: in vivo; details: Abutilon theophrasti, post-emergence, read-out: ABUTH percent control
Method in brief: as §1

[8] = test system: wild oat (Avena fatua) (AVEFA); test: post-emergent herbicidal test, wild oat; assay type: in vivo; details: Avena fatua, post-emergence, read-out: AVEFA percent control
Method in brief: as §1

[9] = post-emergent, 1.0 kg/ha (*), 17-21 days after application
[10] = post-emergent, 4.0 kg/ha, 17-21 days after application

Row | SMILES | IC50 ([2]; Table I) | IC50 ([2]; Table II) | pest or weed control at 1000 g/ha [1, 9] | pest or weed control at 1000 g/ha [3, 9] | pest or weed control at 1000 g/ha [4, 9] | pest or weed control at 1000 g/ha [5, 9] | pest or weed control at 1000 g/ha [6, 9] | pest or weed control at 1000 g/ha [7, 9] | pest or weed control at 1000 g/ha [8, 9] | further results
1 | CONCC(P(=O)(O)O)P(=O)(O)O [Compound 15] | 6310 nM | 6310 nM |  |  |  |  |  |  |  | pest or weed control at 1000 g/ha [1]: 0%; pest or weed control at 1000 g/ha [3]: 0%; pest or weed control at 1000 g/ha [4]: 0%; pest or weed control at 1000 g/ha [5]: 0%; pest or weed control at 1000 g/ha [6]: 0%; pest or weed control at 1000 g/ha [7]: 0%; pest or weed control at 1000 g/ha [8]: 0%
2 | C=CCNCC(P(=O)(O)O)P(=O)(O)O [Compound 18] | 26 nM | 26 nM |  |  |  |  |  |  |  | pest or weed control at 1000 g/ha [1]: 100%; pest or weed control at 1000 g/ha [3]: 50%; pest or weed control at 1000 g/ha [4]: 98%; pest or weed control at 1000 g/ha [5]: 70%; pest or weed control at 1000 g/ha [6]: 98%; pest or weed control at 1000 g/ha [7]: 30%; pest or weed control at 1000 g/ha [8]: 100%
3 | O=P(O)(O)C(CN1CCCCCC1)P(=O)(O)O [Compound 29] | 360 nM | 360 nM | 85% | 0% | 60% | 15% | 60% | 0% | 60% | 
4 | O=P(O)(O)C(CNC1Cc2ccccc2C1)P(=O)(O)O [Compound 46] | 440 nM | 440 nM | 5% | 10% | 20% | 0% | 15% | 5% | 50% | 
5 | CN(C)CC(P(=O)(O)O)P(=O)(O)O [Compound 8] | 2900 nM | 2900 nM |  |  |  |  |  |  |  | pest or weed control at 4000 g/ha [1]: 85%; pest or weed control at 4000 g/ha [3]: 0%; pest or weed control at 4000 g/ha [4]: 50%; pest or weed control at 4000 g/ha [5]: 5%; pest or weed control at 4000 g/ha [6]: 5%; pest or weed control at 4000 g/ha [7]: 0%; pest or weed control at 4000 g/ha [8]: 5%
6 | CC1(C)CCCN(CC(P(=O)(O)O)P(=O)(O)O)C1 [Compound 47] | 2280 nM | 2280 nM | 5% | 0% | 10% | 0% | 0% | 0% | 0% | 
7 | CCCN(CC(C)C)CC(P(=O)(O)O)P(=O)(O)O [Compound 51] | 91 nM | 91 nM | 100% | 5% | 98% | 15% | 98% | 70% | 100% | 
8 | CC(C)NCC(P(=O)(O)O)P(=O)(O)O [Compound 6] | 89 nM | 89 nM |  |  |  |  |  |  |  | pest or weed control at 4000 g/ha [1]: 100%; pest or weed control at 4000 g/ha [3]: 25%; pest or weed control at 4000 g/ha [4]: 60%; pest or weed control at 4000 g/ha [5]: 70%; pest or weed control at 4000 g/ha [6]: 60%; pest or weed control at 4000 g/ha [7]: 15%; pest or weed control at 4000 g/ha [8]: 50%
9 | CC(C)(C)NCC(P(=O)(O)O)P(=O)(O)O [Compound 7] | 238 nM | 239 nM |  |  |  |  |  |  |  | pest or weed control at 4000 g/ha [1, 10]: 100%; pest or weed control at 4000 g/ha [3, 10]: 15%; pest or weed control at 4000 g/ha [4, 10]: 60%; pest or weed control at 4000 g/ha [5, 10]: 60%; pest or weed control at 4000 g/ha [6, 10]: 50%; pest or weed control at 4000 g/ha [7, 10]: 5%; pest or weed control at 4000 g/ha [8, 10]: 85%
10 | CCCCCCNCC(P(=O)(O)O)P(=O)(O)O [Compound 17] | 316 nM | 316 nM | 50% | 0% | 60% | 10% | 50% | 0% | 75% | 
11 | CCCNCC(P(=O)(O)O)P(=O)(O)O [Compound 3] | 30 nM | 30 nM |  |  |  |  |  |  |  | pest or weed control at 1000 g/ha [1]: 100%; pest or weed control at 1000 g/ha [3]: 30%; pest or weed control at 1000 g/ha [4]: 100%; pest or weed control at 1000 g/ha [5]: 95%; pest or weed control at 1000 g/ha [6]: 100%; pest or weed control at 1000 g/ha [7]: 70%; pest or weed control at 1000 g/ha [8]: 100%
12 | CCCN(CC)CC(P(=O)(O)O)P(=O)(O)O [Compound 38] | 124 nM | 124 nM | 100% | 10% | 100% | 90% | 100% | 70% | 100% | 
13 | CC1CCC(C)N1CC(P(=O)(O)O)P(=O)(O)O (centres unmarked) [Compound 11] | 650 nM | 610 nM |  |  |  |  |  |  |  | pest or weed control at 4000 g/ha [1, 10]: 95%; pest or weed control at 4000 g/ha [3, 10]: 0%; pest or weed control at 4000 g/ha [4, 10]: 50%; pest or weed control at 4000 g/ha [5, 10]: 30%; pest or weed control at 4000 g/ha [6, 10]: 50%; pest or weed control at 4000 g/ha [7, 10]: 0%; pest or weed control at 4000 g/ha [8, 10]: 30%
14 | C=CCN(CC=C)CC(P(=O)(O)O)P(=O)(O)O [Compound 37] | 53 nM | 53 nM | 98% | 10% | 100% | 15% | 95% | 10% | 95% | 

The next lines start with results.

Row | IC50 ([2]; Table I) | IC50 ([2]; Table II) | SMILES | pest or weed control at 1000 g/ha [1, 9] | pest or weed control at 1000 g/ha [3, 9] | pest or weed control at 1000 g/ha [4, 9] | pest or weed control at 1000 g/ha [5, 9] | pest or weed control at 1000 g/ha [6, 9] | pest or weed control at 1000 g/ha [7, 9] | pest or weed control at 1000 g/ha [8, 9] | further results
15 | 32 nM | 32 nM | CC[C@H](C)NCC(P(=O)(O)O)P(=O)(O)O [Compound 56] | 100% | 60% | 100% | 98% | 100% | 95% | 100% | 
16 | 186 nM | 186 nM | CCCCCN(CCC)CC(P(=O)(O)O)P(=O)(O)O [Compound 62] | 85% | 10% | 95% | 30% | 85% | 15% | 100% | 
17 | 107 nM | 107 nM | Cc1cn(CC(P(=O)(O)O)P(=O)(O)O)cn1 [Compound 58] | 100% | 10% | 100% | 90% | 98% | 98% | 100% | 
18 | 50 nM | 50 nM | O=P(O)(O)C(CN1C=NCCC1)P(=O)(O)O [Compound 65] | 100% | 5% | 100% | 100% | 100% | 100% | 95% | 
19 |  | 58 nM | CC(O)CNCC(P(=O)(O)O)P(=O)(O)O (centres unmarked) [Compound 66] | 100% | 60% | 98% | 75% | 95% | 90% | 90% | 
20 | 96 nM | 96 nM | CC1CCCN(CC(P(=O)(O)O)P(=O)(O)O)C1C (centres unmarked) [Compound 57] | 100% | 15% | 100% | 90% | 100% | 80% | 100% | 

— patent US5756423A, “Method of controlling plants by inhibition of farnesyl pyrophosphate synthase” (Zeneca Limited, priority 1997, dated 1998)
